Reference: patent publication US12180194B2, “Multi-aziridine compound” (Covestro (Netherlands) B.V., priority 2018, dated 2024)

tested on: Rtkn-GFP; assay: ToxTracker genotoxicity assay, Rtkn-GFP reporter induction; details: GFP induction vs vehicle at 10% cytotoxicity; 3 h exposure with S9, 24 h recovery

Compared with `CCCCOCC(CN1CC1C)OC(=O)NC1CCC(CC2CCC(NC(=O)OC(COCCCC)CN3CC3C)CC2)CC1` (centres unmarked) [Ex. 12], `CCCCOCC(CN1CC1C)OC(=O)NCCCCCC/N=c1\oc(=O)n(CCCCCCNC(=O)OC(COCCCC)CN2CC2C)c(=O)n1CCCCCCNC(=O)OC(COCCCC)CN1CC1C` (centres unmarked) [Ex. 15] is higher in “Genotoxicity test, With S9 rat liver extract, Rtkn, 10” value: 1.0 fold for the first, 1.1 fold for the second.

In the case of `CC(OC(=O)NCCCCCCn1c(=O)n(CCCCCCNC(=O)OC(C)C(C)N2CC2C)c(=O)n(CCCCCCNC(=O)OC(C)C(C)N2CC2C)c1=O)C(C)N1CC1C` (centres unmarked) [Ex. 8], the “Genotoxicity test, With S9 rat liver extract, Rtkn, 10” value is reported as 1.3 fold.

same assay, conditions: GFP induction vs vehicle at 10% cytotoxicity; 24 h exposure, no S9

Compared with `CCCCOCC(CN1CC1C)OC(=O)NC1CCC(CC2CCC(NC(=O)OC(COCCCC)CN3CC3C)CC2)CC1` (centres unmarked) [Ex. 12], `CCCCOCC(CN1CC1C)OC(=O)NCCCCCC/N=c1\oc(=O)n(CCCCCCNC(=O)OC(COCCCC)CN2CC2C)c(=O)n1CCCCCCNC(=O)OC(COCCCC)CN1CC1C` (centres unmarked) [Ex. 15] is higher in “Genotoxicity test, Without S9 rat liver extract, Rtkn, 10” value: 1.0 fold for the first, 1.1 fold for the second.

For `CC(OC(=O)NCCCCCCn1c(=O)n(CCCCCCNC(=O)OC(C)C(C)N2CC2C)c(=O)n(CCCCCCNC(=O)OC(C)C(C)N2CC2C)c1=O)C(C)N1CC1C` (centres unmarked) [Ex. 8], the “Genotoxicity test, Without S9 rat liver extract, Rtkn, 10” value was 1.2 fold.

same assay, conditions: GFP induction vs vehicle at 25% cytotoxicity; 3 h exposure with S9, 24 h recovery

Going from `CCCCOCC(CN1CC1C)OC(=O)NC1CCC(CC2CCC(NC(=O)OC(COCCCC)CN3CC3C)CC2)CC1` (centres unmarked) [Ex. 12] to `CC(OC(=O)NCCCCCCn1c(=O)n(CCCCCCNC(=O)OC(C)C(C)N2CC2C)c(=O)n(CCCCCCNC(=O)OC(C)C(C)N2CC2C)c1=O)C(C)N1CC1C` (centres unmarked) [Ex. 8], the “Genotoxicity test, With S9 rat liver extract, Rtkn, 25” value rises from 1.0 fold to 1.5 fold.

same assay, conditions: GFP induction vs vehicle at 25% cytotoxicity; 24 h exposure, no S9

`CCCCOCC(CN1CC1C)OC(=O)NC1CCC(CC2CCC(NC(=O)OC(COCCCC)CN3CC3C)CC2)CC1` (centres unmarked) [Ex. 12] and `CCCCOCC(CN1CC1C)OC(=O)NCCCCCC/N=c1\oc(=O)n(CCCCCCNC(=O)OC(COCCCC)CN2CC2C)c(=O)n1CCCCCCNC(=O)OC(COCCCC)CN1CC1C` (centres unmarked) [Ex. 15] are the same in “Genotoxicity test, Without S9 rat liver extract, Rtkn, 25” value: 1.0 fold for the first, 1.0 fold for the second.

With `CC(OC(=O)NCCCCCCn1c(=O)n(CCCCCCNC(=O)OC(C)C(C)N2CC2C)c(=O)n(CCCCCCNC(=O)OC(C)C(C)N2CC2C)c1=O)C(C)N1CC1C` (centres unmarked) [Ex. 8] the “Genotoxicity test, Without S9 rat liver extract, Rtkn, 25” value was 1.4 fold.

same assay, conditions: GFP induction vs vehicle at 50% cytotoxicity; 3 h exposure with S9, 24 h recovery

Compared with `CCCCOCC(CN1CC1C)OC(=O)NC1CCC(CC2CCC(NC(=O)OC(COCCCC)CN3CC3C)CC2)CC1` (centres unmarked) [Ex. 12], `CC(OC(=O)NCCCCCCn1c(=O)n(CCCCCCNC(=O)OC(C)C(C)N2CC2C)c(=O)n(CCCCCCNC(=O)OC(C)C(C)N2CC2C)c1=O)C(C)N1CC1C` (centres unmarked) [Ex. 8] is higher in “Genotoxicity test, With S9 rat liver extract, Rtkn, 50” value: 1.1 fold for the first, 1.3 fold for the second.

same assay, conditions: GFP induction vs vehicle at 50% cytotoxicity; 24 h exposure, no S9

First: CCCCOCC(CN1CC1C)OC(=O)NC1CCC(CC2CCC(NC(=O)OC(COCCCC)CN3CC3C)CC2)CC1 (centres unmarked) [Ex. 12]
Second: CCCCOCC(CN1CC1C)OC(=O)NCCCCCC/N=c1\oc(=O)n(CCCCCCNC(=O)OC(COCCCC)CN2CC2C)c(=O)n1CCCCCCNC(=O)OC(COCCCC)CN1CC1C (centres unmarked) [Ex. 15]
The “Genotoxicity test, Without S9 rat liver extract, Rtkn, 50” value of the first is higher: 1.0 fold for the first, 0.9 fold for the second.

`CC(OC(=O)NCCCCCCn1c(=O)n(CCCCCCNC(=O)OC(C)C(C)N2CC2C)c(=O)n(CCCCCCNC(=O)OC(C)C(C)N2CC2C)c1=O)C(C)N1CC1C` (centres unmarked) [Ex. 8] was tested, and the “Genotoxicity test, Without S9 rat liver extract, Rtkn, 50” value was 1.4 fold.

tested on: Bscl2-GFP; assay: ToxTracker genotoxicity assay, Bscl2-GFP reporter induction; details: GFP induction vs vehicle at 10% cytotoxicity; 3 h exposure with S9, 24 h recovery

First: CCCCOCC(CN1CC1C)OC(=O)NC1CCC(CC2CCC(NC(=O)OC(COCCCC)CN3CC3C)CC2)CC1 (centres unmarked) [Ex. 12]
Second: CCCCOCC(CN1CC1C)OC(=O)NCCCCCC/N=c1\oc(=O)n(CCCCCCNC(=O)OC(COCCCC)CN2CC2C)c(=O)n1CCCCCCNC(=O)OC(COCCCC)CN1CC1C (centres unmarked) [Ex. 15]
The “Genotoxicity test, With S9 rat liver extract, Bscl 2, 10” value of the first is higher: 1.1 fold for the first, 1.0 fold for the second.

same assay, conditions: GFP induction vs vehicle at 10% cytotoxicity; 24 h exposure, no S9

Going from `CCCCOCC(CN1CC1C)OC(=O)NC1CCC(CC2CCC(NC(=O)OC(COCCCC)CN3CC3C)CC2)CC1` (centres unmarked) [Ex. 12] to `CCCCOCC(CN1CC1C)OC(=O)NCCCCCC/N=c1\oc(=O)n(CCCCCCNC(=O)OC(COCCCC)CN2CC2C)c(=O)n1CCCCCCNC(=O)OC(COCCCC)CN1CC1C` (centres unmarked) [Ex. 15], the “Genotoxicity test, Without S9 rat liver extract, Bscl 2, 10” value rises from 1.0 fold to 1.1 fold.

same assay, conditions: GFP induction vs vehicle at 25% cytotoxicity; 3 h exposure with S9, 24 h recovery

For `CCCCOCC(CN1CC1C)OC(=O)NC1CCC(CC2CCC(NC(=O)OC(COCCCC)CN3CC3C)CC2)CC1` (centres unmarked) [Ex. 12], the “Genotoxicity test, With S9 rat liver extract, Bscl 2, 25” value was 1.0 fold.

same assay, conditions: GFP induction vs vehicle at 25% cytotoxicity; 24 h exposure, no S9

First: CCCCOCC(CN1CC1C)OC(=O)NC1CCC(CC2CCC(NC(=O)OC(COCCCC)CN3CC3C)CC2)CC1 (centres unmarked) [Ex. 12]
Second: CCCCOCC(CN1CC1C)OC(=O)NCCCCCC/N=c1\oc(=O)n(CCCCCCNC(=O)OC(COCCCC)CN2CC2C)c(=O)n1CCCCCCNC(=O)OC(COCCCC)CN1CC1C (centres unmarked) [Ex. 15]
The “Genotoxicity test, Without S9 rat liver extract, Bscl 2, 25” value of the first is lower: 1.0 fold for the first, 1.1 fold for the second.

same assay, conditions: GFP induction vs vehicle at 50% cytotoxicity; 3 h exposure with S9, 24 h recovery

For `CCCCOCC(CN1CC1C)OC(=O)NC1CCC(CC2CCC(NC(=O)OC(COCCCC)CN3CC3C)CC2)CC1` (centres unmarked) [Ex. 12], the “Genotoxicity test, With S9 rat liver extract, Bscl 2, 50” value was 1.0 fold.

same assay, conditions: GFP induction vs vehicle at 50% cytotoxicity; 24 h exposure, no S9

Compared with `CCCCOCC(CN1CC1C)OC(=O)NC1CCC(CC2CCC(NC(=O)OC(COCCCC)CN3CC3C)CC2)CC1` (centres unmarked) [Ex. 12], `CCCCOCC(CN1CC1C)OC(=O)NCCCCCC/N=c1\oc(=O)n(CCCCCCNC(=O)OC(COCCCC)CN2CC2C)c(=O)n1CCCCCCNC(=O)OC(COCCCC)CN1CC1C` (centres unmarked) [Ex. 15] is lower in “Genotoxicity test, Without S9 rat liver extract, Bscl 2, 50” value: 1.0 fold for the first, 0.9 fold for the second.
